# Patent publication US12178839B2, “Anti-obesity agent, pollakiuria improving agent, and autonomic nervous activity regulator” (ASAHI GROUP HOLDINGS, LTD., priority 2018, dated 2024)
# Ends that are not written are not given here.
# Test system: Male Wistar rats
# Assay: Rat spontaneous urination test (metabolism cage), Test Example 6
# Type: in vivo
# Details: aqueous 0.1 mg/mL LNDP solution as drinking for 7 days
# Experimental: It was confirmed from Test Example 2 that LNDP promotes the efferent hypogastric nerve activity, and it was confirmed from Test Example 3 that LNDP inhibits the efferent the pelvic splanchnic nerve activity. Influence on the bladder, which is one of the internal organs dominated by these nerves, was therefore investigated.
# Male Wistar rats which are 13 weeks old were received, and quarantined and acclimated in a thermostat animal room at 18 to 28° C. in a cycle including a 12-hour light period and a 12-hour dark period for 1 week, and ten 14- to 16-week-old rats per group were tested. An aqueous 0.1 mg/mL LNDP solution or water was ingested from drinking for 7 days, and the urination amount was measured as weight with an electronic balance installed under a urine-collecting opening in raising with a metabolism cage. The weight data of the electronic balance every minute were automatically inputted into a computer. […] The total urination amount and the frequency of urination per day were found, and the urine amount per one time of urination (=the total urination amount per day/the frequency of urination per day) was calculated as to an individual of each group. […] As to the comparison of the test substance and ingestion days with respect to each measured value, two-way analysis of variance (two-way ANOVA) with replication was performed.
sequence,measurement,value
"NIPPLTQTPVVVPPFLQPE [LNDP, Asn-Ile-Pro-Pro-Leu-Thr-Gln-Thr-Pro-Val-Val-Val-Pro-Pro-Phe-Leu-Gln-Pro-Glu]",significant difference in change in body weight vs water ingestion group,not observed
same,significant difference in the general symptoms vs water ingestion group,not observed
